Reference: patent publication US10196390B2, “TYK2 inhibitors and uses thereof” (Nimbus Lakshmi, Inc., priority 2014, dated 2019)
pEC50, pKi: −log10 of the molar value. Where two headings read alike, the source gives them in different places.

Experiments:
JAK2 = JAK2 (Homo sapiens (Human), UniProt O60674); assay: JAK2 activity inhibition assay (radioactive kinase assay / Caliper assay); format: biochemical; settings: read-out: JAK2 Ki
Procedure, shortened: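 Reaction ran 25 min at 28° C after adding peptide/ATP mix (10 mM MgCl2) to compound and enzyme in HEPES pH 7.5 buffer with Brij-35, Triton and EGTA. EDTA stop, then microfluidic off-chip separation quantified phosphorylated peptide.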

Tyk2-pSTAT4 = assay: IL-12 induced pSTAT4 in human PBMC; format: cell-based; settings: read-out: Tyk2-pSTAT4 EC50
Description: (§1) Human PBMC are isolated from buffy coat and are stored frozen for assays as needed. Cells for assay are thawed and resuspended in complete media containing serum, then cells are diluted to 1.67 E6 cells/ml so that 120 μl per well is 200,000 cells. 15 μl of compound or DMSO is added to the well at the desired concentrations and incubated at 1 hr at 37 C. 15 μl of stimulus (final concentration of 1.7 ng/mL IL-12) is added for 30 minutes prior to pSTAT4 and total STAT4 analysis using cell lysates prepared and analyzed by MSD reagents as per manufacturer protocol. The final DMSO concentration of compound in the assay is 0.1%.

JAK2-pSTAT5 = assay: GM-CSF induced pSTAT5 in human PBMC; format: cell-based; settings: read-out: JAK2-pSTAT5 EC50
Description: as §1, with “Cells for assay are thawed and resuspended in complete media containing serum, then cells are diluted to 1.67 E6 cells/ml so that 120 μl per well is 200,000 cells.” left out
Cells are prepared for analysis as in the above procedure and 15 μl of GM-CSF (final concentration 5 ng/mL) is added for 20 minutes prior to pSTAT5 and total STAT5 analysis using cell lysates prepared and analyzed by MSD reagents as per manufacturer protocol. The final DMSO concentration of compound in the assay is 0.1%.

TYK2 = TYK2 (Homo sapiens (Human), UniProt P29597); assay: Tyk2 activity inhibition assay (radioactive kinase assay / Caliper assay); format: biochemical
TYK2, sequence (P29597 whole entry): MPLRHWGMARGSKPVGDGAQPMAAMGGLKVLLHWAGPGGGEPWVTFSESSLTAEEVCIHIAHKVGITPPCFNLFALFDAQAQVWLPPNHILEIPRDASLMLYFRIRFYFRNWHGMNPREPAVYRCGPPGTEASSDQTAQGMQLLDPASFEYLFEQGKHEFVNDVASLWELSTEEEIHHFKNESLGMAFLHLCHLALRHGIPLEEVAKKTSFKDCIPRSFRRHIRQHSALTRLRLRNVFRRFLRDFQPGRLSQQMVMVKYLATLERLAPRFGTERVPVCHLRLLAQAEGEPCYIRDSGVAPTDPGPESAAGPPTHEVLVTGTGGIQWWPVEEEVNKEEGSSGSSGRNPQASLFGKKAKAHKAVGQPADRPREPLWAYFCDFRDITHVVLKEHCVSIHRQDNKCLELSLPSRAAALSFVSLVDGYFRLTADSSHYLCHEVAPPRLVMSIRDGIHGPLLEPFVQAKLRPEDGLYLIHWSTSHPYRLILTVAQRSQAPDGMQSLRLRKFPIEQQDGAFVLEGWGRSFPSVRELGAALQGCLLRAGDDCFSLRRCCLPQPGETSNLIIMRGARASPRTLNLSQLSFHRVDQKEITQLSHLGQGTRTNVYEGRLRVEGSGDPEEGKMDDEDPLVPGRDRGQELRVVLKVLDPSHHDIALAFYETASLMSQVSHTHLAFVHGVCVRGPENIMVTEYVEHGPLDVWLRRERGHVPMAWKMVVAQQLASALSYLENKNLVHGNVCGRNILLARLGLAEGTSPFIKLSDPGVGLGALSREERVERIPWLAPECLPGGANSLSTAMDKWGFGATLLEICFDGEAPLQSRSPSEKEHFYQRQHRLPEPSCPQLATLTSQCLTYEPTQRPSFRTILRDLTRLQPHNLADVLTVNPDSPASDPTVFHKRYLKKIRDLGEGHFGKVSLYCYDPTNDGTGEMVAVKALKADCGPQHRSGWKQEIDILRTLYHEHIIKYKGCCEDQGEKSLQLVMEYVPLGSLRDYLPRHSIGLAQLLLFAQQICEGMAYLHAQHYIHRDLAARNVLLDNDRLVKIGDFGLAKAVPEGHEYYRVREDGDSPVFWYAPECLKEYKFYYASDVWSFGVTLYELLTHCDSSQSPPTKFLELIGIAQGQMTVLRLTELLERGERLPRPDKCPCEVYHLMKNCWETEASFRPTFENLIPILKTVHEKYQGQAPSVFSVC
Procedure, shortened: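 Two formats were used. Caliper off-chip mobility shift read phosphorylated peptide 30 (3 uM) after 25 min at 28° C with 9.75 nM TYK2 and ATP at 16 uM or 1 mM. Radioactive assay: 10 μM 33P-ATP, 20 μM peptide, 120 min room temp, P81 filter counting.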

[1] = IL-12 induced pSTAT4, human PBMC
[2] = GM-CSF induced pSTAT5, human PBMC

JAK2, sequence (O60674 whole entry): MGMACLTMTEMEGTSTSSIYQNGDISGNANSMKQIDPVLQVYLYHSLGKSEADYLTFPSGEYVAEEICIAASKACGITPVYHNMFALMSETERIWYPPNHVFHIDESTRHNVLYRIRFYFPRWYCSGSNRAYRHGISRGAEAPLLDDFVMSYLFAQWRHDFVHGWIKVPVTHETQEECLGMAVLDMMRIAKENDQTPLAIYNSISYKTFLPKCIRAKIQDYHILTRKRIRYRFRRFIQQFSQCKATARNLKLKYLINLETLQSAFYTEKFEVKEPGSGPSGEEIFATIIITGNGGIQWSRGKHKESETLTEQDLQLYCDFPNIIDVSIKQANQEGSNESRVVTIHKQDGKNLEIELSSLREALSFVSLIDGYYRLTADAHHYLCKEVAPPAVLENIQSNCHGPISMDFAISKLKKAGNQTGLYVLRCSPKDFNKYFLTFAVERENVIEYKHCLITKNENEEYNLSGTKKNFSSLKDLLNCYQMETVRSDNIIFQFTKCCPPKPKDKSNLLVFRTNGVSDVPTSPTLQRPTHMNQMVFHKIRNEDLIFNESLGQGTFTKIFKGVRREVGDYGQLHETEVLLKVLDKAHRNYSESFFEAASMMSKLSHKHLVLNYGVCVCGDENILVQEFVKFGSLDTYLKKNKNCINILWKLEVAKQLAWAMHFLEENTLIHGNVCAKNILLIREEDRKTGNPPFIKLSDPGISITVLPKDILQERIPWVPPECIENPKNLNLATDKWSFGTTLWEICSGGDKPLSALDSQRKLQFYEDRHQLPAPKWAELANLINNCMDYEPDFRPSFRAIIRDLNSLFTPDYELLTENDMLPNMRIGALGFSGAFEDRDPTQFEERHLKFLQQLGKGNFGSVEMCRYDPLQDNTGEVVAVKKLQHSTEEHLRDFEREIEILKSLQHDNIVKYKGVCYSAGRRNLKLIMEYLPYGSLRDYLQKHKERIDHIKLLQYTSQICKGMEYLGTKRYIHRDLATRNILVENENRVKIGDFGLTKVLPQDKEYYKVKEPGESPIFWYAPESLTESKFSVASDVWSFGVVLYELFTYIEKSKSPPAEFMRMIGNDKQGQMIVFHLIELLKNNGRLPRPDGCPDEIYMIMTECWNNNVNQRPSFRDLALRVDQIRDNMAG

SMILES | pKi (JAK2) | pEC50 (Tyk2-pSTAT4; [1]) | pEC50 (JAK2-pSTAT5; [2]) | pKi (TYK2) | pEC50 (Tyk2-pSTAT4; Homo sapiens, PBMC) | pEC50 (JAK2-pSTAT5; Homo sapiens, PBMC)
C[C@@H]1CCC[C@@H](C)N1c1ccc(Nc2cc(-c3c(F)cccc3F)nc3c2C(=O)NC3)nc1 [Compound I-265, 2-(2,6-difluorophenyl)-4-((5-((2R,6R)-2,6-dimethylpiperidin-1-yl)pyridin-2-yl)amino)-6,7-dihydro-5H-pyrrolo[3,4-b]pyridin-5-one] | 7.00 to 8.00 | > 5.70 | 4.70 to 5.70 |  |  | 
CC(C)Oc1ccc(Nc2nc(-c3c(F)cccc3F)nc3c2C(=O)NC3)cc1 [Compound I-181, 2-(2,6-difluorophenyl)-4-((4-isopropoxyphenyl)amino)-6,7-dihydro-5H-pyrrolo[3,4-d]pyrimidin-5-one] | 6.00 to 7.00 | > 5.70 | < 4.70 |  |  | 
O=C1NCc2nc(-c3c(F)cccc3F)cc(Nc3ccc(N4CCN(CC(F)F)CC4)cn3)c21 [Compound I-247, 4-((5-(4-(2,2-difluoroethyl)piperazin-1-yl)pyridin-2-yl)amino)-2-(2,6-difluorophenyl)-6,7-dihydro-5H-pyrrolo[3,4-b]pyridin-5-one] | 7.00 to 8.00 | > 5.70 | > 5.70 |  |  | 
O=C1NCc2nc(-c3c(F)cccc3F)cc(Nc3ccc(N4CC5(COC5)C4)cn3)c21 [Compound I-144, 4-((5-(2-oxa-6-azaspiro[3.3]heptan-6-yl)pyridin-2-yl)amino)-2-(2,6-difluorophenyl)-6,7-dihydro-5H-pyrrolo[3,4-b]pyridin-5-one] | > 8.00 | > 5.70 |  | > 8.00 |  | 
CC(C)N1CCN(c2ccc(Nc3cc(-c4c(F)cccc4F)nc4c3C(=O)NC4)nc2)CC1 [Compound I-256, 2-(2,6-difluorophenyl)-4-((5-(4-isopropylpiperazin-1-yl)pyridin-2-yl)amino)-6,7-dihydro-5H-pyrrolo[3,4-b]pyridin-5-one] |  | > 5.70 | > 5.70 |  |  | 
Cc1ccc(Nc2nc(-c3c(F)cccc3F)nc3c2C(=O)NC3)cc1 [Compound I-21, 2-(2,6-difluorophenyl)-4-(p-tolylamino)-6,7-dihydro-5H-pyrrolo[3,4-d]pyrimidin-5-one] |  |  |  |  | > 5.70 | < 4.70
CCOC(=O)Cc1ccc(Nc2nc(-c3ccccc3Cl)nc3c2C(=O)NC3)cc1 [Compound I-1, Ethyl 2-(4-((2-(2-chlorophenyl)-5-oxo-6,7-dihydro-5H-pyrrolo[3,4-d]pyrimidin-4-yl)amino)phenyl)acetate] | 6.00 to 7.00 |  |  | > 8.00 |  | 
O=C(O)Cc1ccc(Nc2nc(-c3ccccc3Cl)nc3c2C(=O)NC3)cc1 [Compound I-7, 2-(4-((2-(2-chlorophenyl)-5-oxo-6,7-dihydro-5H-pyrrolo[3,4-d]pyrimidin-4-yl)amino)phenyl)acetic Acid] | < 6.00 |  |  | 7.00 to 8.00 |  | 
O=C1NCc2nc(-c3c(F)cccc3F)nc(Nc3ccc(CC(=O)N4CCOC[C@H]4C(=O)O)cc3)c21 [Compound I-112, (S)-4-(2-(4-((2-(2,6-difluorophenyl)-5-oxo-6,7-dihydro-5H-pyrrolo[3,4-d]pyrimidin-4-yl)amino)phenyl)acetyl)morpholine-3-carboxylic Acid] | 6.00 to 7.00 |  |  | > 8.00 |  | 
O=C1NCc2nc(-c3c(F)cccc3F)nc(Nc3ccc([C@@H]4CCN(C5CCC5)C4=O)cc3)c21 [Compound I-119, (S)-4-((4-(1-cyclobutyl-2-oxopyrrolidin-3-yl)phenyl)amino)-2-(2,6-difluorophenyl)-6,7-dihydro-5H-pyrrolo[3,4-d]pyrimidin-5-one] | 6.00 to 7.00 |  |  | > 8.00 |  | 
O=C(Cc1ccc(Nc2nc(-c3c(F)cccc3F)nc3c2C(=O)NC3)cc1)NC1CCNCC1 [Compound I-11, 2-(4-((2-(2,6-difluorophenyl)-5-oxo-6,7-dihydro-5H-pyrrolo[3,4-d]pyrimidin-4-yl)amino)phenyl)-N-(piperidin-4-yl)acetamide] | 6.00 to 7.00 |  |  | > 8.00 |  | 
CC1(c2ccc(Nc3nc(-c4c(F)cccc4F)nc4c3C(=O)NC4)cc2)CCN(C2CCOCC2)C1=O (stereo not shown) [Compound I-124, 2-(2,6-difluorophenyl)-4-((4-(3-methyl-2-oxo-1-(tetrahydro-2H-pyran-4-yl)pyrrolidin-3-yl)phenyl)amino)-6,7-dihydro-5H-pyrrolo[3,4-d]pyrimidin-5-one] | 7.00 to 8.00 |  |  | > 8.00 |  | 
NC(=O)Cc1ccc(Nc2nc(-c3ccccc3Cl)nc3c2C(=O)NC3)cc1 [Compound I-8, 2-(4-((2-(2-chlorophenyl)-5-oxo-6,7-dihydro-5H-pyrrolo[3,4-d]pyrimidin-4-yl)amino)phenyl)acetamide] | < 6.00 |  |  | 7.00 to 8.00 |  | 
O=C1NCc2nc(-c3c(F)cccc3F)nc(Nc3cnn(CC(=O)N4CCC[C@H]4CO)c3)c21 [Compound I-68, (S)-2-(2,6-difluorophenyl)-4-((1-(2-(2-(hydroxymethyl)pyrrolidin-1-yl)-2-oxoethyl)-1H-pyrazol-4-yl)amino)-6,7-dihydro-5H-pyrrolo[3,4-d]pyrimidin-5-one] | < 6.00 |  |  | 7.00 to 8.00 |  | 
O=C(O)Cc1ccc(Nc2nc(-c3c(F)cncc3F)nc3c2C(=O)NC3)cc1 [Compound I-85, 2-(4-((2-(3,5-difluoropyridin-4-yl)-5-oxo-6,7-dihydro-5H-pyrrolo[3,4-d]pyrimidin-4-yl)amino)phenyl)acetic Acid] | < 6.00 |  |  | 7.00 to 8.00 |  | 
CC1(C)CCC(=O)N1c1ccc(Nc2cc(-c3c(F)cccc3F)nc3c2C(=O)NC3)nc1 [Compound I-272, 2-(2,6-difluorophenyl)-4-((5-(2,2-dimethyl-5-oxopyrrolidin-1-yl)pyridin-2-yl)amino)-6,7-dihydro-5H-pyrrolo[3,4-b]pyridin-5-one] |  | > 5.70 | > 5.70 |  |  | 
O=C1NCc2nc(-c3c(F)cccc3F)cc(Nc3ccc(N4CCCC4)cn3)c21 [Compound I-205, 2-(2,6-difluorophenyl)-4-((5-(pyrrolidin-1-yl)pyridin-2-yl)ami-no)-6,7-dihydro-5H-pyrrolo[3,4-b]pyridin-5-one] |  | > 5.70 | 4.70 to 5.70 |  |  | 
C[C@]1(c2ccc(Nc3nc(-c4c(F)cccc4F)nc4c3C(=O)NC4)cc2)NC(=O)NC1=O [Compound I-174, (R)-5-(4-((2-(2,6-difluorophenyl)-5-oxo-6,7-dihydro-5H-pyrrolo[3,4-d]pyrimidin-4-yl)amino)phenyl)-5-methylimidazolidine-2,4-dione] | 7.00 to 8.00 |  |  | > 8.00 |  | 
O=C1NCc2nc(-c3c(F)cccc3F)nc(Nc3ccc(Cl)cc3)c21 [Compound I-180, 4-((4-chlorophenyl)amino)-2-(2,6-difluorophenyl)-6,7-dihydro-5H-pyrrolo[3,4-d]pyrimidin-5-one] | < 6.00 |  |  | 7.00 to 8.00 |  | 
CCOC(=O)C(C)(C)c1ccc(Nc2nc(-c3c(F)cccc3F)nc3c2C(=O)NC3)cc1 [Compound I-178, ethyl 2-(4-((2-(2,6-difluorophenyl)-5-oxo-6,7-dihydro-5H-pyrrolo[3,4-d]pyrimidin-4-yl)amino)phenyl)-2-methylpropanoate] | 6.00 to 7.00 |  |  | > 8.00 |  | 
NC(=O)c1cc(F)c(-c2cc(Nc3ccc(N4CCOCC4)cn3)c3c(n2)CNC3=O)c(F)c1 [Compound I-250, 3,5-difluoro-4-(4-((5-morpholinopyridin-2-yl)amino)-5-oxo-6,7-dihydro-5H-pyrrolo[3,4-b]pyridin-2-yl)benzamide] | 6.00 to 7.00 |  |  | 7.00 to 8.00 |  | 
O=C1NCc2nc(-c3c(F)cccc3F)cc(Nc3ccc(C4CCNC4=O)cn3)c21 (stereo not shown) [Compound I-133, 2-(2,6-difluorophenyl)-4-((5-(2-oxopyrrolidin-3-yl)pyridin-2-yl)amino)-6,7-dihydro-5H-pyrrolo[3,4-b]pyridin-5-one] | 7.00 to 8.00 |  |  | > 8.00 |  | 
CN1CCNC(C)(c2ccc(Nc3cc(-c4c(F)cccc4F)nc4c3C(=O)NC4)nc2)C1=O (stereo not shown) [Compound I-223, 2-(2,6-difluorophenyl)-4-((5-(2,4-dimethyl-3-oxopiperazin-2-yl)pyridin-2-yl)amino)-6,7-dihydro-5H-pyrrolo[3,4-b]pyridin-5-one] | > 8.00 |  |  | > 8.00 |  | 
COc1ccc(Nc2cc(-c3c(F)cccc3F)nc3c2C(=O)NC3)cc1 [Compound I-230, 2-(2,6-difluorophenyl)-4-((4-methoxyphenyl)amino)-6,7-dihydro-5H-pyrrolo[3,4-b]pyridin-5-one] | 6.00 to 7.00 |  |  | > 8.00 |  | 
